Read-outs that look alike come from different tables or passages of the source.
What was measured:
[1] = pH (pD) titration by 1H-NMR in D2O; type: physicochemical; conditions: uncorrected
Method: General information. ^1H, ^13C and ^19F NMR were collected on a Varian Gemini 300 MHz NMR spectrometer and a Bruker 300 MHz NMR spectrometer. Mass spectrometry data was collected on a Jeol JMS-600H. UV spectra were recorded on a Shimadzu UV-2100. Fluorescence spectra were obtained with SPEX FluoMax spectrofluorimeter using right-angle geometry. pH was adjusted with AB 15 plus pH meter (Accument) after standardization at 25° C. All buffers were prepared and pH-adjusted at room temperature (25° C.). Plasmid DNA Photocleavage. pBR322 plasmid DNA (4,361 b/p; from BioLabs Inc., 1 μg/μL solution in 10 mM Tris-HCl (pH 8.0), and 1 mM EDTA buffer) was diluted to a concentration of 0.01 μg/μL. The solution containing cleavage agent, DNA (30 μM/bp) in 20 mM sodium phosphate buffer was incubated for 1 hour at 30° C. […] The relative quantities of the supercoiled, nicked, and linear DNA were calculated by integrating the “area” of each spot by the image analyzer software Total/Lab (Nonlinear Dynamics Ltd., UK). […] Absorbance and fluorescence titration with DNA. The concentrations of calf thymus DNA stock solution was determined spectophotometrically using the following molar absorptovity values: 1.32×10^4 M^−1 cm^−1 (per base pair) at 260 nm. […]

DNA = conditions: cited from earlier work

SMILES | pKa1 (α-amino group) [1] | pKa2 (ε-amino group) [1] | extent of single stranded (ss) DNA cleavage (DNA; pH 5.5, 5 μM antibiotic loading) | extent of single stranded (ss) DNA cleavage (DNA; pH 7)
Cl.Cl.NCCCC[C@H](N)C(=O)Nc1ccccc1 [Compound 8, (S)-2,6-Diaminohexanoic acid phenyl-amide dihydrochloride] | 7.56 | 10.75 | – | –
COc1cc(CCN)c2c(c1OC)SS[S+]2[O-] (stereo not shown) [Varacin C] | – | – | 47% | 23%
